Experimental data taken from patent US20260125400A1, “TYK2 DEGRADERS AND USES THEREOF” (Kymera Therapeutics, Inc., priority 2023, published 2026).

Molecular target: T1, TYK2 (Homo sapiens, UniProt P29597)
T1 construct: Degradation of TYK2 in cells was quantitatively measured using Meso Scale Discovery (MSD) technology; endogenous in cells; host or cells: OCI-LY10
Assay: TYK2 MSD degradation in OCI-LY10 cells
Format: cell-based
Settings: TYK2 degradation in OCI-LY10 cells, 4 to 24 hours incubation; for DC50: read-out: TYK2 MSD OCI-LY10 Rel-DC50
Summary of the method: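 Cellular TYK2 levels were measured by Meso Scale Discovery sandwich detection in RIPA lysates of OCI-LY10 cells exposed 4 to 24 hours at 37° C to nine 1:3 compound doses starting at 1 to 10 μM final; dose-response fitted by four-parameter regression.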

T1 sequence (P29597 whole entry): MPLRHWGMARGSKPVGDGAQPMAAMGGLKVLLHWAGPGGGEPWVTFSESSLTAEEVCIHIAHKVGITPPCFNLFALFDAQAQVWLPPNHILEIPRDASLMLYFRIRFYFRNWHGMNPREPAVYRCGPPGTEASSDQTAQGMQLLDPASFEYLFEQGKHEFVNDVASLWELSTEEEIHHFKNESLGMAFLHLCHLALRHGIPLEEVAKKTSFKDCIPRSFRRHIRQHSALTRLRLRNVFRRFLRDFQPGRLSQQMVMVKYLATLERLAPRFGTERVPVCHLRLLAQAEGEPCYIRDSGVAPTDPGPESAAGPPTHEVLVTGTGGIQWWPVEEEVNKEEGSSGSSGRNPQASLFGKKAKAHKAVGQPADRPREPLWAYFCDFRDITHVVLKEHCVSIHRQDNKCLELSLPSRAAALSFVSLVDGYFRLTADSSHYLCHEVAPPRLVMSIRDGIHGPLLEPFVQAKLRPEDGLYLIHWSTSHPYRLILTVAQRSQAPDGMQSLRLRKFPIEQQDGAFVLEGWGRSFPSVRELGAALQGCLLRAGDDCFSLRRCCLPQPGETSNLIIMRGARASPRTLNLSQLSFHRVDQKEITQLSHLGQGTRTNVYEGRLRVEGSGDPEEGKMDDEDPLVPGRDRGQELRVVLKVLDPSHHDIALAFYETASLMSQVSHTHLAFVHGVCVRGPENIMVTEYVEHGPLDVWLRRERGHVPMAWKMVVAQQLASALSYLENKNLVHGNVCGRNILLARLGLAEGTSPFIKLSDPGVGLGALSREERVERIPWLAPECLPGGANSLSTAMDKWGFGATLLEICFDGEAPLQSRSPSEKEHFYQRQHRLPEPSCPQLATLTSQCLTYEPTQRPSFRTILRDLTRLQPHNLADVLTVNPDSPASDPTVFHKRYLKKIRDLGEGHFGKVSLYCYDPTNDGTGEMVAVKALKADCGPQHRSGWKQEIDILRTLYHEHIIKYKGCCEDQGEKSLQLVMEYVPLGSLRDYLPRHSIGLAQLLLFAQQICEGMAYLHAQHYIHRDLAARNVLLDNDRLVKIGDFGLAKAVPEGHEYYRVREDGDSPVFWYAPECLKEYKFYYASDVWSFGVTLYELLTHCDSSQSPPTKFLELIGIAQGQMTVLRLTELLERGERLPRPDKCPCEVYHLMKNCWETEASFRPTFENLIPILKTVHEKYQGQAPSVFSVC

CNc1cc(N2CCc3c(-c4ccc(CN5CCC6(CCN(C(=O)c7ccc(Cl)c(N8CCC(=O)NC8=O)c7)CC6)C(F)(F)C5)cn4)cccc32)nn2c(C(=O)N[C@H]3CC[C@@H]3C(F)(F)F)cnc12 [I-1103]
TYK2 MSD OCI-LY10 Dmax %: D (D (<50%)) | DC50: 10 to 100 nM

CNc1cc(N2CCc3c(-c4ccc(CC5CC6(CCN(C(=O)c7cc(F)c(Cl)c(N8CCC(=O)NC8=O)c7)CC6)C5)cn4)cccc32)nn2c(C(=O)N[C@@H]3CC[C@H]3OC)cnc12 [I-1104]
TYK2 MSD OCI-LY10 Dmax %: A (A (>90%)) | DC50: < 10 nM

CNc1cc(N2CCc3c(-c4ncc(CN5CCC6(CCN(C(=O)c7cc(C)c(Cl)c(N8CCC(=O)NC8=O)c7)CC6)C(F)(F)C5)cc4F)cccc32)nn2c(C(=O)N[C@@H]3CC[C@H]3OC)cnc12 [I-1106]
TYK2 MSD OCI-LY10 Dmax %: A (A (>90%)) | DC50: < 10 nM

CNc1cc(N2CCc3c(-c4ccc(CC5CCC6(CC5)CCN(C(=O)c5cc(C)c(Cl)c(N7CCC(=O)NC7=O)c5)CC6)cn4)cccc32)nn2c(C(=O)N[C@@H]3CC[C@H]3OC)cnc12 [I-1107]
TYK2 MSD OCI-LY10 Dmax %: A (A (>90%)) | DC50: < 10 nM

CNc1cc(N2CCc3c(-c4ccc(CN5CCC6(CCN(C(=O)c7ccc(Cl)c(N8CCC(=O)NC8=O)c7)CC6)C(F)(F)C5)cn4)cccc32)nn2c(C(=O)N[C@@H]3CC[C@H]3C(F)(F)F)cnc12 [I-1108]
TYK2 MSD OCI-LY10 Dmax %: D (D (<50%)) | DC50: > 100 nM

CNc1cc(N2CCc3c(CN4CCC(N5CCC6(CCN(C(=O)c7cc(C)c(Cl)c(N8CCC(=O)NC8=O)c7)CC6)CC5)C(F)(F)C4)cc(F)cc32)nn2c(C(=O)N[C@@H]3CC[C@H]3OC)cnc12 (stereo partly shown) [I-1114]
TYK2 MSD OCI-LY10 Dmax %: A (A (>90%)) | DC50: < 1 nM

CNc1cc(N2CCc3c(CN4CCC(N5CCC6(CCN(C(=O)c7cc(C)c(Cl)c(N8CCC(=O)NC8=O)c7)CC6)CC5)C(F)(F)C4)cc(Cl)cc32)nn2c(C(=O)N[C@@H]3CC[C@H]3OC)cnc12 (stereo partly shown) [I-1116]
TYK2 MSD OCI-LY10 Dmax %: B (B (90 to >75%)) | DC50: < 10 nM

CNc1cc(N2CCc3c(-c4ccc(CN5CC6(CCN(C(=O)c7cc(C)c(Cl)c(N8CCC(=O)NC8=O)c7)CC6(F)F)C5)cn4)cccc32)nn2c(C(=O)N[C@H]3CCC[C@@H]3OC)cnc12 [I-1117]
TYK2 MSD OCI-LY10 Dmax %: D (D (<50%)) | DC50: > 100 nM

CNc1cc(N2CCc3c(-c4ccc(CN5CCC6(CCN(C(=O)c7ccc(Cl)c(N8CCC(=O)NC8=O)c7)CC6)C(F)(F)C5)cn4)cccc32)nn2c(C(=O)NC3CC(C(F)(F)F)C3)cnc12 (stereo not shown) [I-1118]
TYK2 MSD OCI-LY10 Dmax %: C (C (75 to 50%)) | DC50: 10 to 100 nM

CNc1cc(N2CCc3c(-c4ccc(CC5(F)CC6(CCN(C(=O)c7cc(N8CCC(=O)NC8=O)c(C)cc7F)CC6)C5)cn4)cccc32)nn2c(C(=O)N[C@@H]3CC[C@H]3OC)cnc12 [I-1121]
TYK2 MSD OCI-LY10 Dmax %: A (A (>90%)) | DC50: < 1 nM

CNc1cc(N2CCc3c(CN4CCC(CN5CCC6(CCN(C(=O)c7cc(C)c(Cl)c(N8CCC(=O)NC8=O)c7)CC6)C(F)(F)C5)C(F)(F)C4)cccc32)nn2c(C(=O)N[C@@H]3CC[C@H]3OC)cnc12 (stereo partly shown) [I-1122]
TYK2 MSD OCI-LY10 Dmax %: A (A (>90%)) | DC50: < 1 nM

CNc1cc(N2CCc3c(CN4CCC(CN5CCC6(CCN(C(=O)c7ccc(Cl)c(N8CCC(=O)NC8=O)c7)CC6)C(F)(F)C5)C(F)(F)C4)cccc32)nn2c(C(=O)N[C@@H]3CC[C@H]3OC)cnc12 (stereo partly shown) [I-1124]
TYK2 MSD OCI-LY10 Dmax %: A (A (>90%)) | DC50: < 1 nM

CNc1cc(N2CCc3c(CN4CCC(N5CCC6(CCN(C(=O)c7cc(N8CCC(=O)NC8=O)c(C)c(Cl)c7F)CC6)CC5)C(F)(F)C4)cccc32)nn2c(C(=O)N[C@@H]3CC[C@H]3OC)cnc12 (stereo partly shown) [I-1125]
TYK2 MSD OCI-LY10 Dmax %: A (A (>90%)) | DC50: < 1 nM

CNc1cc(N2CCc3c([C@H](C)N4CC[C@H](N5CCC6(CCN(C(=O)c7cc(C)c(Cl)c(N8CCC(=O)NC8=O)c7)CC6)CC5)C(F)(F)C4)cccc32)nn2c(C(=O)N[C@@H]3CC[C@H]3OC)cnc12 [I-1127]
TYK2 MSD OCI-LY10 Dmax %: A (A (>90%)) | DC50: < 1 nM

CNc1cc(N2CCc3c([C@@H](C)N4CC[C@H](N5CCC6(CCN(C(=O)c7cc(C)c(Cl)c(N8CCC(=O)NC8=O)c7)CC6)CC5)C(F)(F)C4)cccc32)nn2c(C(=O)N[C@@H]3CC[C@H]3OC)cnc12 [I-1128]
TYK2 MSD OCI-LY10 Dmax %: A (A (>90%)) | DC50: < 1 nM

COC1(c2cc(C)cc(-c3cn(CCC4CCN(C5CCN(c6cc(F)c(C7CCC(=O)NC7=O)c(F)c6)CC5)CC4)c4cnc(NC(C)=O)cc34)n2)CCOC1 (stereo not shown) [I-1130]
TYK2 MSD OCI-LY10 Dmax %: B (B (90 to >75%)) | DC50: < 10 nM

CNc1cc(N2CCc3c(-c4ncc(CN5CC6(CCN(C(=O)c7cc(N8CCC(=O)NC8=O)c(C)c(Cl)c7F)CC6(F)F)C5)cc4F)cccc32)nn2c(C(=O)N[C@@H]3CC[C@H]3OC)cnc12 [I-1133]
TYK2 MSD OCI-LY10 Dmax %: A (A (>90%)) | DC50: < 1 nM

CNc1cc(N2CCc3c(-c4ncc(CN5CC6(CCN(C(=O)c7cc(N8CCC(=O)NC8=O)c(OC)cc7F)CC6(F)F)C5)cc4F)cccc32)nn2c(C(=O)N[C@@H]3CC[C@H]3OC)cnc12 [I-1134]
TYK2 MSD OCI-LY10 Dmax %: A (A (>90%)) | DC50: < 1 nM

CNc1cc(N2CCc3c(-c4ncc(CN5CC6(CCN(C(=O)c7cc(N8CCC(=O)NC8=O)c(OC)cc7C)CC6(F)F)C5)cc4F)cccc32)nn2c(C(=O)N[C@@H]3CC[C@H]3OC)cnc12 [I-1135]
TYK2 MSD OCI-LY10 Dmax %: A (A (>90%)) | DC50: < 1 nM

CNc1cc(N2CCc3c(-c4ncc(CN5CC6(CCN(C(=O)c7cc(OC)c(C)c(N8CCC(=O)NC8=O)c7)CC6(F)F)C5)cc4F)cccc32)nn2c(C(=O)N[C@@H]3CC[C@H]3OC)cnc12 [I-1137]
TYK2 MSD OCI-LY10 Dmax %: A (A (>90%)) | DC50: < 1 nM

CNc1cc(N2CCc3c(-c4ncc(CN5CC6(CCN(C(=O)c7cc(C)c(OC)c(N8CCC(=O)NC8=O)c7)CC6(F)F)C5)cc4F)cccc32)nn2c(C(=O)N[C@@H]3CC[C@H]3OC)cnc12 [I-1138]
TYK2 MSD OCI-LY10 Dmax %: B (B (90 to >75%)) | DC50: < 1 nM

CNc1cc(N2CCc3c(-c4ncc(C(=O)N5CC6(CCN(C(=O)c7cc(C)c(Cl)c(N8CCC(=O)NC8=O)c7)CC6(F)F)C5)cc4F)cccc32)nn2c(C(=O)N[C@@H]3CC[C@H]3OC)cnc12 [I-1139]
TYK2 MSD OCI-LY10 Dmax %: A (A (>90%)) | DC50: < 1 nM

CNc1cc(N2CCc3c(-c4ncc(C(=O)N5CC6(CCN(C(=O)c7cc(C)c(Cl)c(N8CCC(=O)NC8=O)c7)CC6)C5)cc4F)cccc32)nn2c(C(=O)N[C@@H]3CC[C@H]3OC)cnc12 [I-1140]
TYK2 MSD OCI-LY10 Dmax %: A (A (>90%)) | DC50: < 1 nM

CNc1cc(N2CCc3c(CN4CC[C@@H](N5CCC6(CC5)CN(C(=O)c5cc(Cl)c(C)c(N7CCC(=O)NC7=O)c5)C6)C(F)(F)C4)cccc32)nn2c(C(=O)N[C@@H]3CC[C@H]3OC)cnc12 [I-1141]
TYK2 MSD OCI-LY10 Dmax %: A (A (>90%)) | DC50: < 1 nM

CNc1cc(N2CCc3c(CN4CC[C@H](N5CCC6(CC5)CN(C(=O)c5cc(Cl)c(C)c(N7CCC(=O)NC7=O)c5)C6)C(F)(F)C4)cccc32)nn2c(C(=O)N[C@@H]3CC[C@H]3OC)cnc12 [I-1142]
TYK2 MSD OCI-LY10 Dmax %: A (A (>90%)) | DC50: < 1 nM

CNc1cc(N2CCc3c(-c4ncc([C@H](C)N5CC6(CCN(C(=O)c7cc(C)c(Cl)c(N8CCC(=O)NC8=O)c7)CC6(F)F)C5)cc4F)cccc32)nn2c(C(=O)N[C@@H]3CC[C@H]3OC)cnc12 [I-1143]
TYK2 MSD OCI-LY10 Dmax %: A (A (>90%)) | DC50: < 1 nM
